Some test systems named below: U251 CNS; MDA-MB-231 breast; TK-10 renal; NCI/ADR-RES ovarian; CCRF-CEM leukemia; SF-268 CNS; HOP-92 NSCLC; SF-539 CNS; HL-60(TB) leukemia; T-47D breast; OVCAR-3 ovarian; UACC-62 melanoma; OVCAR-8 ovarian; SW-620 colon; A549 NSCLC; NCI-H23 lung; SN12C renal; MALME-3M melanoma; A498 renal.
Experiment in all cases: DTP human tumour cell line panel, 48 h

The results in this text go back to PubChem BioAssay (NCI).

The structures appear in SMILES notation.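 Growth conditions: 96-well plates. Treatment: test compound, 48 hours, 5 concentrations. Analysis: linear interpolation between bracketing concentrations; unreached endpoints set to highest concentration. At the TGI there is no net growth.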

By TGI is commonly meant the concentration at which net growth stops. Higher therefore signals lower sensitivity of the cells. As to `O=C1OC([C@H](O)c2cccnc2)c2ccccc21` (some centres undefined), the TGI in the test with U251 CNS, with MDA-MB-231 breast, with TK-10 renal, in the test with NCI/ADR-RES ovarian, in the test with CCRF-CEM leukemia and in the test on SF-268 CNS was over 10 µM in each case. Further, the TGI with HOP-92 NSCLC, with SF-539 CNS, in the test on HL-60(TB) leukemia, in the test on T-47D breast, in the test on OVCAR-3 ovarian and in the test with UACC-62 melanoma was over 10 µM throughout. For the same molecule, the TGI with OVCAR-8 ovarian, with SW-620 colon, in the test with A549 NSCLC, in the test with NCI-H23 lung and in the test with SN12C renal was over 10 µM each time.

On to `COC(=O)/C=C/[C@@H]1[C@H](C)N1S(=O)(=O)c1ccc(C)cc1` (some centres undefined), for which the TGI in the test with MALME-3M melanoma, in the test on U251 CNS, in the test on MDA-MB-231 breast, in the test on A498 renal, in the test on TK-10 renal and with NCI/ADR-RES ovarian was over 100 µM throughout. For the same molecule, the TGI in the test on CCRF-CEM leukemia, in the test with SF-268 CNS, in the test on SF-539 CNS, in the test on HL-60(TB) leukemia, in the test with T-47D breast and with OVCAR-3 ovarian was over 100 µM throughout. Besides, the TGI with UACC-62 melanoma, in the test on OVCAR-8 ovarian, in the test with SW-620 colon, with A549 NSCLC, in the test with NCI-H23 lung and in the test on SN12C renal was over 100 µM throughout.

For the molecule `CC(=O)N1C(Nc2nccs2)CCN1c1ccccc1` (centres undefined), the TGI in the test on MALME-3M melanoma, in the test with MDA-MB-231 breast, in the test with TK-10 renal, in the test with NCI/ADR-RES ovarian, in the test with CCRF-CEM leukemia and in the test on SF-268 CNS was over 10 µM each time. Besides, the TGI with HOP-92 NSCLC, in the test on SF-539 CNS, with HL-60(TB) leukemia, with T-47D breast, in the test with OVCAR-3 ovarian and in the test on OVCAR-8 ovarian was over 10 µM each time. The TGI in the test on SW-620 colon, in the test on A549 NSCLC, in the test with NCI-H23 lung and in the test on SN12C renal was over 10 µM throughout.

On to `O=C1NCN(c2ccccc2)C12CCN(CC1COc3ccccc3O1)CC2` (centres undefined), for which the TGI is over 100 µM with MALME-3M melanoma; 79.6 µM in the test with U251 CNS; over 100 µM with MDA-MB-231 breast; over 100 µM in the test with A498 renal; over 100 µM in the test with TK-10 renal; over 100 µM in the test on NCI/ADR-RES ovarian. For the same molecule, the TGI in the test on CCRF-CEM leukemia, in the test with SF-268 CNS, in the test on SF-539 CNS, in the test on HL-60(TB) leukemia, with T-47D breast and in the test with OVCAR-3 ovarian was over 100 µM each time. The TGI in the test on UACC-62 melanoma, in the test on OVCAR-8 ovarian, in the test with SW-620 colon, in the test with A549 NSCLC, with NCI-H23 lung and with SN12C renal was over 100 µM throughout.

On to `C1CSCC2(COC2)CSCCSCC2(COC2)CS1`, for which the TGI with U251 CNS, with MDA-MB-231 breast, in the test on TK-10 renal, in the test with NCI/ADR-RES ovarian, with CCRF-CEM leukemia and in the test with SF-268 CNS was over 100 µM each time. Moreover, the TGI with HOP-92 NSCLC, in the test on SF-539 CNS, in the test with HL-60(TB) leukemia, in the test with T-47D breast, in the test on OVCAR-3 ovarian and with UACC-62 melanoma was over 100 µM throughout. Further, the TGI in the test on OVCAR-8 ovarian, in the test on SW-620 colon, in the test on A549 NSCLC, in the test on NCI-H23 lung and in the test with SN12C renal was over 100 µM in each case.

Turning to `COc1cc([C@@H]2c3cc4c(cc3[C@@H](Nc3ccc(Cl)cc3C(=O)c3ccccc3)[C@H]3COC(=O)[C@H]23)OCO4)cc(OC)c1OC`, the TGI is over 100 µM with MALME-3M melanoma; 0.576 µM in the test with U251 CNS; over 100 µM in the test on MDA-MB-231 breast; 5.27 µM with A498 renal; over 100 µM in the test with TK-10 renal; over 100 µM in the test on NCI/ADR-RES ovarian. The TGI in the test with CCRF-CEM leukemia was over 100 µM; in the test with SF-268 CNS, over 100 µM; in the test with SF-539 CNS it was 0.669 µM; with HL-60(TB) leukemia, 1.09 µM; with T-47D breast, over 100 µM; with OVCAR-3 ovarian, over 100 µM. For the same molecule, the TGI in the test with UACC-62 melanoma is over 100 µM; in the test with OVCAR-8 ovarian, over 100 µM; with SW-620 colon, over 100 µM; with A549 NSCLC, over 100 µM; in the test on NCI-H23 lung it was over 29.6 µM; in the test with SN12C renal it was over 100 µM.

Turning to `COc1ccc(-c2nc(Nc3ccccc3)sc2Cc2sc(Nc3ccccc3)nc2-c2ccc(OC)cc2)cc1`, the TGI with MALME-3M melanoma, in the test with U251 CNS, with MDA-MB-231 breast, in the test on A498 renal, in the test with TK-10 renal and in the test with NCI/ADR-RES ovarian was over 100 µM in each case. For the same molecule, the TGI in the test with CCRF-CEM leukemia was over 100 µM; in the test with SF-268 CNS, over 100 µM; with SF-539 CNS, over 100 µM; in the test with HL-60(TB) leukemia it was 52 µM; with T-47D breast, over 100 µM; with OVCAR-3 ovarian it was over 100 µM. The TGI with UACC-62 melanoma, in the test with OVCAR-8 ovarian, in the test on SW-620 colon, in the test with A549 NSCLC, in the test with NCI-H23 lung and in the test on SN12C renal was over 100 µM throughout.

On to `C1CCCN(NC2=NCCO2)CC1`, for which the TGI with MALME-3M melanoma, in the test with U251 CNS, in the test with MDA-MB-231 breast, in the test with A498 renal, with TK-10 renal and in the test on NCI/ADR-RES ovarian was over 100 µM each time. For the same molecule, the TGI in the test with CCRF-CEM leukemia, with SF-539 CNS, with HL-60(TB) leukemia, in the test with T-47D breast, with OVCAR-3 ovarian and in the test on UACC-62 melanoma was over 100 µM throughout. Also, the TGI in the test with OVCAR-8 ovarian, in the test with SW-620 colon, with A549 NSCLC, in the test on NCI-H23 lung and in the test with SN12C renal was over 100 µM throughout.

Consider `CCCCCCCCCCCCOCC1(COCCCCCCCCCCCC)COC(c2ccc(N)cc2)OC1`, for which the TGI in the test on MALME-3M melanoma, in the test with U251 CNS, in the test on MDA-MB-231 breast, in the test on A498 renal, in the test with TK-10 renal and in the test on NCI/ADR-RES ovarian was over 100 µM in each case. In addition, the TGI in the test with SF-268 CNS, in the test on SF-539 CNS, in the test with T-47D breast, in the test on OVCAR-3 ovarian, in the test on UACC-62 melanoma and with OVCAR-8 ovarian was over 100 µM throughout. For the same molecule, the TGI in the test on SW-620 colon, with A549 NSCLC, in the test on NCI-H23 lung and in the test with SN12C renal was over 100 µM each time.

Take `Cc1ccc(C(=O)Oc2ccccc2)cc1N=NN(C)C`: the TGI in the test on MALME-3M melanoma, in the test with U251 CNS, with MDA-MB-231 breast, in the test on TK-10 renal, with NCI/ADR-RES ovarian and in the test on CCRF-CEM leukemia was over 100 µM each time. Further, the TGI with SF-268 CNS, with HOP-92 NSCLC, in the test on SF-539 CNS, in the test on HL-60(TB) leukemia, in the test with T-47D breast and in the test on OVCAR-3 ovarian was over 100 µM each time. Moreover, the concentration for total growth inhibition (TGI) in the test with UACC-62 melanoma, in the test with OVCAR-8 ovarian, in the test on SW-620 colon, in the test with A549 NSCLC, in the test with NCI-H23 lung and in the test with SN12C renal was over 100 µM each time.

In the case of `Nc1ccccc1C(=O)N=Nc1c(O)[nH]c2ccccc12`, the TGI in the test with MALME-3M melanoma, in the test with U251 CNS, in the test with MDA-MB-231 breast, with A498 renal, with TK-10 renal and in the test with NCI/ADR-RES ovarian was over 100 µM in each case. For the same molecule, the TGI with CCRF-CEM leukemia, in the test with SF-268 CNS, in the test with SF-539 CNS, in the test with T-47D breast, in the test with OVCAR-3 ovarian and in the test on UACC-62 melanoma was over 100 µM in each case. Moreover, the TGI in the test with OVCAR-8 ovarian, in the test with A549 NSCLC, with NCI-H23 lung and in the test with SN12C renal was over 100 µM each time.

`O=C1NC2(CCNCC2)Oc2ccccc21`: the TGI in the test on MALME-3M melanoma, in the test on U251 CNS, in the test with MDA-MB-231 breast, with TK-10 renal, in the test on NCI/ADR-RES ovarian and in the test on CCRF-CEM leukemia was over 100 µM each time. Besides, the TGI in the test on SF-268 CNS, in the test with HOP-92 NSCLC, with SF-539 CNS, with HL-60(TB) leukemia, in the test with T-47D breast and in the test with OVCAR-3 ovarian was over 100 µM throughout. Moreover, the TGI in the test with UACC-62 melanoma, with OVCAR-8 ovarian, in the test on SW-620 colon, in the test on A549 NSCLC, with NCI-H23 lung and with SN12C renal was over 100 µM each time.

With `NC(=O)[N+](=CC(=S)Nc1ccccc1Cl)C(N)=O`, the TGI with U251 CNS, in the test with MDA-MB-231 breast, with TK-10 renal, in the test with NCI/ADR-RES ovarian, with CCRF-CEM leukemia and in the test on SF-268 CNS was over 100 µM throughout. Besides, the TGI in the test on HOP-92 NSCLC, with SF-539 CNS, with HL-60(TB) leukemia, in the test with T-47D breast, with OVCAR-3 ovarian and in the test with UACC-62 melanoma was over 100 µM in each case. Also, the TGI with OVCAR-8 ovarian, in the test on SW-620 colon, in the test with A549 NSCLC, in the test with NCI-H23 lung and in the test on SN12C renal was over 100 µM in each case.
